Laboratory results reported in ChEMBL document CHEMBL1201862, “PubChem BioAssay data set” (2004).
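Each compound was tested at five concentrations against cells in 96-well plates for 48 hours. GI50 marks 50% less growth.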 Calls of active or inactive are those of the source. No stated cut-off is given here; in the data, active = GI50 up to about 1.1 µM and inactive = higher.

What was measured:
Experiment in all cases: inhibition of tumour cell growth, NCI panel, 48 h
A549 = test system: A549
786-0 = test system: 786-0
HCT-15 = test system: HCT-15
CAKI-1 = test system: CAKI-1
SF-295 = test system: SF-295
MOLT-4 = test system: MOLT-4
HCT-116 = test system: HCT-116
PC-3 = test system: PC-3
SF-268 = test system: SF-268
DU-145 = test system: DU-145
OVCAR-4 = test system: OVCAR-4
RXF 393 = test system: RXF 393
NCI-H23 = test system: NCI-H23
SW-620 = test system: SW-620
COLO 205 = test system: COLO 205
OVCAR-5 = test system: OVCAR-5
NCI-H460 = test system: NCI-H460
LOX IMVI = test system: LOX IMVI

SMILES: CCOP(=O)(CC1CC(O)(CNc2cc(Cl)nc(N)n2)C1)OCC (stereo not drawn)
- GI50 (A549): > 100 µM (inactive)
- GI50 (786-0): > 100 µM (inactive)
- GI50 (HCT-15): > 100 µM
- GI50 (CAKI-1): > 100 µM (inactive)
- GI50 (SF-295): > 100 µM (inactive)
- GI50 (MOLT-4): > 100 µM (inactive)
- GI50 (HCT-116): > 100 µM (inactive)
- GI50 (PC-3): > 100 µM (inactive)
- GI50 (SF-268): > 100 µM (inactive)
- GI50 (DU-145): > 100 µM (inactive)
- GI50 (OVCAR-4): > 100 µM (inactive)
- GI50 (RXF 393): > 100 µM (inactive)
- GI50 (NCI-H23): > 100 µM (inactive)
- GI50 (SW-620): > 100 µM (inactive)
- GI50 (COLO 205): > 100 µM (inactive)
- GI50 (OVCAR-5): > 100 µM (inactive)
- GI50 (NCI-H460): > 100 µM (inactive)
- GI50 (LOX IMVI): > 100 µM (inactive)

SMILES: Cc1cc2sc(C)[n+](CCCOS(=O)(=O)[O-])c2cc1C
- GI50 (A549): > 100 µM (inactive)
- GI50 (786-0): > 100 µM (inactive)
- GI50 (HCT-15): > 100 µM
- GI50 (CAKI-1): > 100 µM (inactive)
- GI50 (SF-295): > 100 µM (inactive)
- GI50 (MOLT-4): 72.4 µM (inactive)
- GI50 (HCT-116): > 100 µM (inactive)
- GI50 (PC-3): > 100 µM (inactive)
- GI50 (SF-268): 62.5 µM (inactive)
- GI50 (DU-145): > 100 µM (inactive)
- GI50 (OVCAR-4): > 100 µM (inactive)
- GI50 (RXF 393): > 100 µM (inactive)
- GI50 (NCI-H23): > 100 µM (inactive)
- GI50 (SW-620): > 100 µM (inactive)
- GI50 (COLO 205): > 100 µM (inactive)
- GI50 (OVCAR-5): > 100 µM (inactive)
- GI50 (NCI-H460): > 100 µM (inactive)
- GI50 (LOX IMVI): > 100 µM (inactive)

SMILES: CC(C(=O)ON1C(=O)CCC1=O)c1ccc(C(=O)c2ccccc2)s1 (stereo not drawn)
- GI50 (A549): > 100 µM (inactive)
- GI50 (786-0): > 100 µM (inactive)
- GI50 (HCT-15): > 100 µM
- GI50 (CAKI-1): > 100 µM (inactive)
- GI50 (SF-295): > 100 µM (inactive)
- GI50 (MOLT-4): > 100 µM (inactive)
- GI50 (HCT-116): > 100 µM (inactive)
- GI50 (PC-3): > 100 µM (inactive)
- GI50 (SF-268): > 100 µM (inactive)
- GI50 (DU-145): > 100 µM (inactive)
- GI50 (OVCAR-4): > 100 µM (inactive)
- GI50 (RXF 393): > 100 µM (inactive)
- GI50 (NCI-H23): > 100 µM (inactive)
- GI50 (SW-620): > 100 µM (inactive)
- GI50 (COLO 205): > 100 µM (inactive)
- GI50 (OVCAR-5): > 100 µM (inactive)
- GI50 (NCI-H460): > 100 µM (inactive)
- GI50 (LOX IMVI): > 100 µM (inactive)

SMILES: Cc1cccc(C)c1NC(=S)NC=C(C(N)=O)C(N)=O
- GI50 (A549): > 100 µM (inactive)
- GI50 (786-0): > 100 µM (inactive)
- GI50 (HCT-15): > 100 µM
- GI50 (CAKI-1): > 100 µM (inactive)
- GI50 (SF-295): > 100 µM (inactive)
- GI50 (MOLT-4): > 100 µM (inactive)
- GI50 (HCT-116): > 100 µM (inactive)
- GI50 (PC-3): > 100 µM (inactive)
- GI50 (SF-268): > 100 µM (inactive)
- GI50 (DU-145): > 100 µM (inactive)
- GI50 (OVCAR-4): > 100 µM (inactive)
- GI50 (RXF 393): > 100 µM (inactive)
- GI50 (NCI-H23): > 100 µM (inactive)
- GI50 (SW-620): > 100 µM (inactive)
- GI50 (COLO 205): > 100 µM (inactive)
- GI50 (OVCAR-5): > 100 µM (inactive)
- GI50 (NCI-H460): > 100 µM (inactive)
- GI50 (LOX IMVI): > 100 µM (inactive)

SMILES: COC(=O)CCC(NC(=O)OC(C)(C)C)C(=O)NC(Cc1ccc(NC(=O)CCCC(C)=O)cc1)C(=O)NC(CCC(=O)OC)C(=O)OC (stereo not drawn)
- GI50 (A549): > 100 µM (inactive)
- GI50 (786-0): > 100 µM (inactive)
- GI50 (HCT-15): > 100 µM
- GI50 (CAKI-1): > 100 µM (inactive)
- GI50 (SF-295): > 100 µM (inactive)
- GI50 (MOLT-4): > 100 µM (inactive)
- GI50 (HCT-116): > 100 µM (inactive)
- GI50 (PC-3): > 100 µM (inactive)
- GI50 (SF-268): > 100 µM (inactive)
- GI50 (DU-145): > 100 µM (inactive)
- GI50 (OVCAR-4): > 100 µM (inactive)
- GI50 (RXF 393): > 100 µM (inactive)
- GI50 (NCI-H23): > 100 µM (inactive)
- GI50 (SW-620): > 100 µM (inactive)
- GI50 (COLO 205): > 100 µM (inactive)
- GI50 (OVCAR-5): > 100 µM (inactive)
- GI50 (NCI-H460): > 100 µM (inactive)
- GI50 (LOX IMVI): > 100 µM (inactive)

SMILES: CCN(CC)CCC1CCCCN1CC(=O)N1c2ccccc2NC(=O)c2ccccc21 (stereo not drawn)
- GI50 (A549): > 100 µM (inactive)
- GI50 (786-0): > 100 µM (inactive)
- GI50 (HCT-15): > 100 µM
- GI50 (CAKI-1): > 100 µM (inactive)
- GI50 (SF-295): > 100 µM (inactive)
- GI50 (MOLT-4): > 100 µM (inactive)
- GI50 (HCT-116): > 100 µM (inactive)
- GI50 (PC-3): > 100 µM (inactive)
- GI50 (SF-268): > 100 µM (inactive)
- GI50 (DU-145): > 100 µM (inactive)
- GI50 (OVCAR-4): > 100 µM (inactive)
- GI50 (RXF 393): > 100 µM (inactive)
- GI50 (NCI-H23): > 100 µM (inactive)
- GI50 (COLO 205): > 100 µM (inactive)
- GI50 (OVCAR-5): > 100 µM (inactive)
- GI50 (NCI-H460): > 100 µM (inactive)
- GI50 (LOX IMVI): > 100 µM (inactive)

SMILES: COC(=O)C1C(C(=O)OC)C2(OC(c3ccc(Cl)cc3)=CC2=O)C12OC(c1ccc(Cl)cc1)=CC2=O (stereo not drawn)
- GI50 (A549): 34.1 µM (inactive)
- GI50 (786-0): 16.6 µM (inactive)
- GI50 (HCT-15): 16.4 µM
- GI50 (CAKI-1): 22 µM (inactive)
- GI50 (SF-295): 22.6 µM (inactive)
- GI50 (MOLT-4): 4.45 µM (inactive)
- GI50 (HCT-116): 14.9 µM (inactive)
- GI50 (PC-3): 21.8 µM (inactive)
- GI50 (SF-268): 24.5 µM (inactive)
- GI50 (DU-145): 29.9 µM (inactive)
- GI50 (OVCAR-4): 19.9 µM (inactive)
- GI50 (RXF 393): 17.5 µM (inactive)
- GI50 (NCI-H23): 20.8 µM (inactive)
- GI50 (SW-620): 32.7 µM (inactive)
- GI50 (COLO 205): 16.7 µM (inactive)
- GI50 (OVCAR-5): 24.3 µM (inactive)
- GI50 (NCI-H460): 19.8 µM (inactive)
- GI50 (LOX IMVI): 23.1 µM (inactive)

SMILES: CC(C)c1cccc(C(C)C)c1NC(=O)/C(CC(=O)CC(c1ccccc1)c1c(O)c2ccccc2oc1=O)=N/O (stereo not drawn)
- GI50 (A549): > 100 µM (inactive)
- GI50 (786-0): > 100 µM (inactive)
- GI50 (HCT-15): > 100 µM
- GI50 (CAKI-1): > 100 µM (inactive)
- GI50 (SF-295): > 100 µM (inactive)
- GI50 (MOLT-4): > 100 µM (inactive)
- GI50 (HCT-116): > 100 µM (inactive)
- GI50 (PC-3): > 100 µM (inactive)
- GI50 (SF-268): > 100 µM (inactive)
- GI50 (DU-145): > 100 µM (inactive)
- GI50 (OVCAR-4): > 100 µM (inactive)
- GI50 (RXF 393): > 100 µM (inactive)
- GI50 (NCI-H23): > 100 µM (inactive)
- GI50 (SW-620): > 100 µM (inactive)
- GI50 (COLO 205): > 100 µM (inactive)
- GI50 (OVCAR-5): > 100 µM (inactive)
- GI50 (NCI-H460): > 100 µM (inactive)
- GI50 (LOX IMVI): > 100 µM (inactive)
